{
  "source": "paper PMC4995097",
  "about": "“Talin-KANK1 interaction controls the recruitment of cortical microtubule stabilizing complexes to focal adhesions” (eLife, 2016)",
  "key": {"Talin1 R7-R8 (1357–1659)": {"molecular_target": "T1, Talin1 R7-R8 (1357–1659) (Mus musculus, UniProt P26039)", "T1 construct": "peptides to Talin1 R7-R8 (1357–1659) was measured using a Fluorescence Polarization assay; His-tag (cleaved yes); made in house; host or cells: E. coli BL21(DE3)", "T1 sequence (P26039 1357-1659)": "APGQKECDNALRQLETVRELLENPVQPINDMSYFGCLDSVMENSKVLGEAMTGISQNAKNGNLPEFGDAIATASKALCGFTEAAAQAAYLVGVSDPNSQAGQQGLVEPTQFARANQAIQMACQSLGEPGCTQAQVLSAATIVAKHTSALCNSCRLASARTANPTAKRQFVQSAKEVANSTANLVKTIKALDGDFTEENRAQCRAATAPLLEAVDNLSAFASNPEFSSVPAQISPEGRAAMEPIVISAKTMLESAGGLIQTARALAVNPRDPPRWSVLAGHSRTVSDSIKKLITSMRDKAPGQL", "test": "Fluorescence polarization binding of BODIPY-labeled KANK peptides to talin1 R7-R8", "set-up": "species or system murine", "settings": "Fluorescence polarization; 0.5 μM BODIPY TMR-labeled peptide, increasing talin R7-R8, PBS, room temperature; one site total and non-specific binding; ± SE, triplicate; panel F; read-out: Dissociation constant (Kd), Fig. 2F"}, "R7-R8 S1641E": {"molecular_target": "T2, R7-R8 S1641E (Mus musculus, UniProt P26039, S1641E)", "T2 construct": "His-tag (cleaved yes); made in house; host or cells: E. coli BL21(DE3)", "T2 sequence (P26039 1357-1659 S1641E)": "as the sequence (P26039 1357-1659) above, with S285E counted along it", "test": "Fluorescence polarization binding to talin1 R7-R8 S1641E", "set-up": "species or system murine", "settings": "0.5 μM BODIPY TMR-labeled peptide, PBS, room temperature, ± SE, triplicate, panel G, read-out: Dissociation constant (Kd), S1641E", "text": "The cDNAs encoding murine talin1 residues 1357–1653 (R7-R8), 1357–1653 Δ1454–1586 (R7) and 1461–1580 (R8) were synthesized by PCR using a mouse talin1 cDNA as template and cloned into the expression vector pet151-TOPO (Invitrogen) ([Gingras et al., 2010]). Talin mutants were synthesized by GeneArt. Talin polypeptides were expressed in E. coli BL21(DE3) cultured either in LB for unlabeled protein, or in M9 minimal medium for the preparation of isotopically labeled samples for NMR. Recombinant His-tagged talin polypeptides were purified by nickel-affinity chromatography following standard procedures. The His-tag was removed by cleavage with AcTEV protease (Invitrogen), and the proteins were further purified by anion-exchange. Protein concentrations were determined using their respective extinction coefficient at 280 nm.\nKANK peptides with a C-terminal cysteine residue were synthesized by Biomatik (USA):\nFluorescence Polarization was carried out on KANK peptides with a carboxy terminal cysteine. […]\nThe Fluorescence Polarization assay was carried out on a black 96well plate (Nunc). […] Fluorescence Polarization measurements were recorded on a BMGLabTech CLARIOstar plate reader at room temperature and analyzed using GraphPad Prism (version 6.07). Kd values were calculated with a nonlinear curve fitting using a one site total and non-specific binding model."}, "[1]": {"tested_on": "KANK1 at the cell edge of HeLa cells", "test": "Peripheral clustering of KANK1", "format": "cell-based, human", "procedure": "(§1) HeLa Kyoto cell line was described previously ([Lansbergen et al., 2006]; [Mimori-Kiyosue et al., 2005]). HEK293T cells were purchased from ATCC; culture and transfection of DNA and siRNA into these cell lines was performed as previously described ([van der Vaart et al., 2013]). HaCaT cells were purchased at Cell Line Service (Eppelheim, Germany) and cultured according to manufacturer’s instructions. The cell lines were routinely checked for mycoplasma contamination using LT07-518 Mycoalert assay (Lonza, Switzerland).The identity of the cell lines was monitored by immunofluorescence-staining-based analysis with multiple markers. Blebbistatin was purchased from Enzo Life Sciences and used at 50 μM. Serum starvation in HeLa cells was done for 48 hr and focal adhesion assembly was stimulated by incubation with fetal calf serum-containing medium with or without blebbistatin for 2 hr. ROCK1 inhibitor Y-27632 was purchased at Sigma-Aldrich and used at 1 or 10 μM. Double stable HeLa cell line expressing GFP-KANK1 and TagRFP-paxillin was made by viral infection. We used a pLVIN-TagRFP-paxillin-based lentivirus and a pQC-GFP-KANK1-based retrovirus packaged in HEK293T cells using respectively Lenti-X HTX packaging and pCL-Ampho vectors. Antibiotic selection was applied to cells 48 hr after infection using 500 μg/ml G418 (Geneticin, Life Technologies) and 1 μg/ml puromycin (InvivoGen).\nAntibodies against HA and GFP tags, and liprin β1 used for Western blot analysis were previously described ([van der Vaart et al., 2013]). Rabbit antibodies against KANK1 (HPA005539) and KANK2 (HPA015643) were purchased at Sigma-Aldrich. Western blot analysis of KANK1 was performed using rabbit polyclonal KANK1 antibody (A301-882A) purchased at Bethyl Laboratories. Talin immunofluorescence staining was performed using mouse monoclonal 8d4 antibody (Sigma-Aldrich). Western blot analysis of talin 1 and 2 expression was performed using respectively the isotype specific mouse monoclonal 97H6 (Sigma-Aldrich) and 68E7 (Abcam) antibodies. Ku80 (7/Ku80) antibody was purchased from BD Biosciences. Immunofluorescence staining of KANK1, LL5β, liprin β1, KIF21A and CLASP2 in HeLa and HaCaT cells was performed using the antibodies and procedures previously described ([Lansbergen et al., 2006]; [van der Vaart et al., 2013]). F-actin was stained using Alexa Fluor 594-conjugated phalloidin (Life Technologies). Phospho-tyrosine mouse antibody (PT-66) was purchased from Sigma-Aldrich and rabbit FAK phospho-tyrosine 397 was purchased from Biosource.\nFixed samples and corresponding immunofluorescence images were acquired using widefield fluorescence illumination on a Nikon Eclipse 80i or Ni upright microscope equipped with a CoolSNAP HQ2 CCD camera (Photometrics) or a DS-Qi2 camera (Nikon) an Intensilight C-HGFI precentered fiber illuminator (Nikon), ET-DAPI, ET-EGFP and ET-mCherry filters (Chroma), Nikon NIS Br software, Plan Apo VC 100x NA 1.4 oil, Plan Apo Lambda 100X oil NA 1.45 and Plan Apo VC 60x NA 1.4 oil (Nikon) objectives. TIRFM-based live cell imaging was performed using the setup described before ([van der Vaart et al., 2013]) or a similar Nikon Ti microscope-based Ilas^2 system (Roper Scientific, Evry, FRANCE) equipped with dual laser illuminator for azimuthal spinning TIRF (or Hilo) illumination, 150 mW 488 nm laser and 100 mW 561 nm laser, 49,002 and 49,008 Chroma filter sets, EMCCD Evolve mono FW DELTA 512x512 camera (Roper Scientific) with the intermediate lens 2.5X (Nikon C mount adapter 2.5X), CCD camera CoolSNAP MYO M-USB-14-AC (Roper Scientific) and controlled with MetaMorph 7.8.8 software (Molecular Devices). Simultaneous imaging of […] was performed as described before ([van der Vaart et al., 2013]) or using the Optosplit III image splitter device (Andor) on the Ilas^2 system.\nFor presentation, images were adjusted for brightness and processed by Gaussian blur and Unsharp mask filter using ImageJ 1.47v (NIH). […]"}, "[2]": {"tested_on": "KANK1/talin in HeLa cells", "test": "KANK1 and talin colocalization (Pearson R)", "format": "cell-based, human", "procedure": "as §1, with “We used a pLVIN-TagRFP-paxillin-based lentivirus and a pQC-GFP-KANK1-based retrovirus packaged in HEK293T cells using respectively Lenti-X HTX packaging and pCL-Ampho vectors. Antibiotic selection was applied to cells 48 hr after infection using 500 μg/ml G418 (Geneticin, Life Technologies) and 1 μg/ml puromycin (InvivoGen).” left out\nFor presentation, images were adjusted for brightness and processed by Gaussian blur and Unsharp mask filter using ImageJ 1.47v (NIH). Fluorescence profiles are values measured by line scan analysis in ImageJ, normalized by background average fluorescence, expressed as a factor of the baseline value obtained for individual channel and plotted as a function of maximum length factor of the selection line (distance ratio). Protein clustering at the cell edge is the ratio of the total fluorescence in the first 5 μm from the cell edge to the next 5 μm measured by line scan analysis in ImageJ after thresholding for cell outline marking and out-of-cell region value assigned to zero. […] KANK1/talin colocalization was analyzed using Pearson R value provided by Colocalization Analysis plugin under FiJi-ImageJ and a 3 μm diameter circular ROI centered on talin clusters detected by immunofluorescent staining."}, "[3]": {"tested_on": "focal adhesions in HeLa cells", "test": "FA number", "format": "cell-based, human", "procedure": "as §1\nFor presentation, images were adjusted for brightness and processed by Gaussian blur and Unsharp mask filter using ImageJ 1.47v (NIH). Fluorescence profiles are values measured by line scan analysis in ImageJ, normalized by background average fluorescence, expressed as a factor of the baseline value obtained for individual channel and plotted as a function of maximum length factor of the selection line (distance ratio). Protein clustering at the cell edge is the ratio of the total fluorescence in the first 5 μm from the cell edge to the next 5 μm measured by line scan analysis in ImageJ after thresholding for cell outline marking and out-of-cell region value assigned to zero. The results were plotted as percentage of control condition average value. FA counting and area measurement was performed using Analyze Particles under ImageJ on focal adhesion binary mask obtained after Gaussian blur/threshold-based cell outline marking and background subtraction (rolling ball radius, 10 pixels). KANK1/talin colocalization was analyzed using Pearson R value provided by Colocalization Analysis plugin under FiJi-ImageJ and a 3 μm diameter circular ROI centered on talin clusters detected by immunofluorescent staining."}, "[4]": {"tested_on": "focal adhesions in HeLa cells", "test": "FA area", "format": "cell-based, human", "settings": "Y-27632, HeLa", "procedure": "HeLa Kyoto cell line was described previously ([Lansbergen et al., 2006]; [Mimori-Kiyosue et al., 2005]). HEK293T cells were purchased from ATCC; culture and transfection of DNA and siRNA into these cell lines was performed as previously described ([van der Vaart et al., 2013]). HaCaT cells were purchased at Cell Line Service (Eppelheim, Germany) and cultured according to manufacturer’s instructions. The cell lines were routinely checked for mycoplasma contamination using LT07-518 Mycoalert assay (Lonza, Switzerland).The identity of the cell lines was monitored by immunofluorescence-staining-based analysis with multiple markers. Blebbistatin was purchased from Enzo Life Sciences and used at 50 μM. […]\nFor presentation, images were adjusted for brightness and processed by Gaussian blur and Unsharp mask filter using ImageJ 1.47v (NIH). Fluorescence profiles are values measured by line scan analysis in ImageJ, normalized by background average fluorescence, expressed as a factor of the baseline value obtained for individual channel and plotted as a function of maximum length factor of the selection line (distance ratio). Protein clustering at the cell edge is the ratio of the total fluorescence in the first 5 μm from the cell edge to the next 5 μm measured by line scan analysis in ImageJ after thresholding for cell outline marking and out-of-cell region value assigned to zero. […]"}},
  "data": [
    {"smiles": "CC[C@H](C)[C@H](NC(=O)[C@H](CC(=O)O)NC(=O)[C@H](CC(=O)O)NC(=O)[C@@H](NC(=O)[C@H](Cc1ccc(O)cc1)NC(=O)[C@H](CCCCN)NC(=O)[C@@H](NC(=O)[C@H](Cc1ccccc1)NC(=O)[C@H](CC(=O)O)NC(=O)[C@H](CC(C)C)NC(=O)[C@H](CC(=O)O)NC(=O)[C@H](CC(C)C)NC(=O)[C@H](CCC(N)=O)NC(=O)[C@H](Cc1ccccc1)NC(=O)CNC(=O)[C@H](Cc1ccc(O)cc1)NC(=O)[C@@H]1CCCN1C(=O)[C@@H](NC(=O)[C@H](CCC(=O)O)NC(=O)[C@@H](NC(=O)[C@H](Cc1ccccc1)NC(=O)[C@H](Cc1ccc(O)cc1)NC(=O)[C@@H]1CCCN1)C(C)C)[C@@H](C)O)C(C)C)C(C)C)C(=O)N[C@@H](CCC(N)=O)C(=O)N[C@@H](CCCCN)C(=O)NCC(=O)N[C@@H](CC(N)=O)C(=O)N[C@H](C(=O)N[C@H](C(=O)N[C@@H](CCCCN)C(=O)N[C@@H](CCCCN)C(=O)N[C@@H](CS)C(=O)O)[C@@H](C)CC)[C@@H](C)O", "note": "[KANK1(30–60)C]", "values": [
      {"measurement": "Kd", "setting": "Talin1 R7-R8 (1357–1659)", "result": "800 ± 100", "unit": "nM"},
      {"measurement": "Kd", "setting": "R7-R8 S1641E", "result": "2100 ± 400", "unit": "nM"}
    ]},
    {"smiles": "C[C@@H](N)[C@H]1CC[C@H](C(=O)Nc2ccncc2)CC1", "note": "[Y-27632]", "values": [
      {"measurement": "Peripheral clustering of KANK1, edge ratio, AV, 1 uM", "setting": "[1]; Y-27632 1 uM, 45 min, mean, n = 12, SEM 0.341991", "result": 2.059},
      {"measurement": "Peripheral clustering of KANK1, percentage of control, AV, 1 uM", "setting": "[1]; Y-27632 1 uM, 45 min, mean, n = 12, SEM 6.6857", "result": "40.2515 percentage of control condition average value"},
      {"measurement": "Peripheral clustering of KANK1, edge ratio, AV, 10 uM", "setting": "[1]; Y-27632 10 uM, 45 min, mean, n = 12, SEM 0.374449", "result": 2.344},
      {"measurement": "Peripheral clustering of KANK1, percentage of control, AV, 10 uM", "setting": "[1]; Y-27632 10 uM, 45 min, mean, n = 12, SEM 7.32023", "result": "45.8254 percentage of control condition average value"},
      {"measurement": "CMSC clustering at the cell edge (in words)", "setting": "[1]; Y-27632, HeLa", "result": "sufficient to diminish CMSC clustering at the cell edge"},
      {"measurement": "KANK1 and talin colocalization, Pearson R value, av, 1 uM", "setting": "[2]; Y-27632 1 uM, mean, n = 30, sem 0.0310046, control 0.0606667", "result": 0.496},
      {"measurement": "KANK1 and talin colocalization, Pearson R value, av, 10 uM", "setting": "[2]; Y-27632 10 uM, mean, n = 30, sem 0.0260316, control 0.0606667", "result": 0.535},
      {"measurement": "overlap of KANK1 with FA adhesion markers (in words)", "setting": "[2]; Y-27632, HeLa", "result": "very significant increase in the overlap of KANK1 with FA adhesion markers"},
      {"measurement": "AV #FA (mean number of focal adhesions per cell)", "setting": "[3]; HeLa, Y-27632 1 uM, 45 min, mean of 7 cells (SD 17.5499, SEM 6.63325)", "result": 54},
      {"measurement": "number of FAs (in words)", "setting": "[3]; Y-27632, HeLa", "result": "the number of FAs was not affected"},
      {"measurement": "size of FAs (in words)", "setting": "[4]", "result": "their size was reduced"}
    ]}
  ]
}
